Data on 26 compounds can be found in patent US20200325543A1, “DIAGNOSTIC METHOD” (TOLREMO THERAPEUTICS AG, priority 2017, published 2020).

The test system of the assay is SOX2. The assay is described as follows: Screen of a library of FDA-approved drugs for SOX2 antibody staining in A375 cells treated with PLX4720 and AZD6244. Conditions: for cor. loess: normalized and geometry-corrected (loess) signal; for norm: signal after plate normalization.
Where [1] appears, read: A375 cells, 5 uM test drug with 1 uM PLX4720 and 0.5 uM AZD6244, 24 h.
Setting [2] is: A375 cells, 5 uM test drug with 1 uM PLX4720 and 0.5 uM AZD6244, 24 h, raw signal (ratio of FL2 SOX2 antibody and FL3 nuclear staining), screen run in duplicate.
Where [3] appears, read: Z-test against negative controls (DMSO), single dose 5 uM.

Several values for one entry are separate records, joined by “and”; a condition that tells them apart may be missing. Identical values can stand only once. Counter-ions that a name gives are not always drawn. Like-named read-outs stand apart in the source and are kept apart here.

Regarding `Cc1ccc(C(=O)Nc2ccc(CN3CCN(C)CC3)c(C(F)(F)F)c2)cc1C#Cc1cnc2cccnn12` [Ponatinib (AP24534), Ponatinib], under setting [1], the cor. loess turned out to be 0.6841 and the norm worked out at 0.7518. Moreover, under setting [2], the raw came to 0.9701. In addition, under setting [3], the z is 5.338.
The like results for `CCC(=O)O[C@]1(C(=O)CCl)[C@@H](C)C[C@H]2[C@@H]3C[C@H](F)C4=CC(=O)C=C[C@]4(C)[C@@]3(F)[C@@H](O)C[C@@]21C` [Halobetasol Propionate] were, in that order, 0.4055, 0.3998, 0.9809 and 4.335.
In the same order, the values of `O=c1[nH]c(=O)n([C@H]2C[C@H](O)[C@@H](CO)O2)cc1C(F)(F)F` [TRIFLURIDINE] are 0.4387, 0.4485, 0.9796 and 5.969.
In the same order, the values of `O=C(Oc1cccc2cccnc12)c1ccccc1` [BENZOXIQUINE] are 0.5846, 0.6197, 0.9731 and 3.458.
Take `CC(=O)Nc1c(I)cc(I)c(C(=O)O)c1I` [ACETRIAZOIC ACID]: under setting [1], the cor. loess was 0.3537 and the norm is 0.3797. The raw under setting [2] came out at 0.9817. Further, the z under setting [3] was 4.812.
The like results for `CN1C[C@H](CNC(=O)OCc2ccccc2)C[C@@H]2c3cccc4c3c(cn4C)C[C@H]21` [METERGOUNE] were, in that order, 0.4209, 0.4023, 0.9793 and 4.666.
In the same order, the values of `CCCCC(CC)CN1CN(CC(CC)CCCC)CC(C)(N)C1` (stereo not drawn) [HEXETIDINE] are 0.3155, 0.2651, 0.9834 and 3.497.
Under setting [1], `Nc1ccccc1NC(=O)c1ccc(CNC(=O)OCc2cccnc2)cc1` [Entinostat (MS-275), Entinostat] displayed a cor. loess of 0.6933 and a norm of 0.8427. Besides, the raw under setting [2] came to 0.9672. Besides, the z under setting [3] was 5.41.
The like results for `CCCC(=O)O[C@]1(C(=O)COC(C)=O)CC[C@H]2[C@@H]3C[C@H](F)C4=CC(=O)C=C[C@]4(C)[C@@]3(F)[C@@H](O)C[C@@]21C` [Difluprednate] were, in that order, 0.4529, 0.4293, 0.9801 and 4.842.
The like results for `CCN1CCN(Cc2ccc(Nc3ncc(F)c(-c4cc(F)c5nc(C)n(C(C)C)c5c4)n3)nc2)CC1` [LY2835219] were, in that order, 1.234, 1.024, 0.963 and 4.755.
Under setting [1], `CN(C)c1ccc(C(=C2C=CC(=[N+](C)C)C=C2)c2ccc(N(C)C)cc2)cc1` [GENTIAN VIOLET] had a cor. loess of 1.077 and a norm of 1.09. Further, the raw under setting [2] came out at 0.9601. This compound returned a z under setting [3] of 8.875.
The like results for `C[C@@H]1O[C@@H](O[C@@H]2C=C3CC[C@@H]4[C@H](CC[C@]5(C)[C@@H](c6ccc(=O)oc6)CC[C@]45O)[C@@]3(C)CC2)[C@H](O)[C@H](O)[C@H]1O` [PROSCILLARIDIN A] were, in that order, 0.5083, 0.4294, 0.9787 and 3.007.
`[O-][n+]1ccccc1[S-].[O-][n+]1ccccc1[S-].[Zn+2]` [PYRITHIONE ZINC]: the raw was 0.8268 and 0.898; the z is 15.67 and 26.13.
Under setting [1], `CCS(=O)(=O)N1CCN(c2ccc(Nc3ncc(C(N)=O)c(NC4CC4)n3)cc2)CC1` [Cerdulatinib (PRT062070, PRT2070), Cerdulatinib] gave a cor. loess of 0.4672 and a norm of 0.6248. For the same compound, under setting [2], the raw is on record as 0.9741. This compound showed a z under setting [3] of 3.646.
`C[CH2][Hg][S]c1ccccc1C(=O)[O-].[Na+]` [THIMEROSAL]: the raw is 0.9726 and 0.8663.
`[H]/N=C(/NCCCCC)N/N=C/c1c[nH]c2ccc(OC)cc12` [TEGASEROD MALEATE]: under setting [1], the cor. loess was 0.2864 and the norm is 0.2748. In addition, the raw under setting [2] stood at 0.9849. Under setting [3], this compound showed a z of 3.897.
The like results for `CC(C)COc1ccc(CNC(=O)N(Cc2ccc(F)cc2)C2CCN(C)CC2)cc1` [Pimavanserin] were, in that order, 0.7376, 0.7906, 0.9689 and 5.755.
On to “GRAMICIDIN [GRAMICIDIN (gramicidin A shown)]”, for which the z came out at 4.938. Under setting [1], this compound had a cor. loess of 0.5992 and a norm of 0.7289. Besides, the raw under setting [2] was 0.9705.
Under setting [1], Aprotinin yielded a cor. loess of 1.14 and a norm of 0.9994. Also, the raw under setting [2] stood at 0.9662. This compound also came in with a z under setting [3] of 4.093.
In the same order, the values of `CC(=O)N[C@@H](CC(C)C)C(=O)O` [ACETYL-L-LEUCINE] are 0.5782, 0.5922, 0.9737 and 6.41.
Consider `CC[C@H]1CN2CCc3cc(OC)c(OC)cc3[C@@H]2C[C@@H]1C[C@H]1NCCc2cc(OC)c(OC)cc21` [EMETINE DIHYDROCHLORIDE], for which the z is reported as 11.78. Under setting [1], this compound showed a cor. loess of 1.429 and a norm of 1.489. In addition, the raw under setting [2] stood at 0.9485.
Under setting [1], `Cc1ccc(-c2nc3ccc(C)cn3c2CC(=O)N(C)C)cc1` [ZOLPIDEM] gave a cor. loess of 0.2522 and a norm of 0.4412. Also, the raw under setting [2] turned out to be 0.9798. Under setting [3], this compound gave a z of 3.432.
Under setting [1], `CCOc1cc2ncc(C#N)c(Nc3ccc(OCc4ccccn4)c(Cl)c3)c2cc1NC(=O)/C=C/CN(C)C` [Neratinib (HKI-272), Neratinib] registered a cor. loess of 4.182 and a norm of 4.156. Further, the raw under setting [2] came to 0.9044. Further, under setting [3], the z is recorded as 16.11.
In the same order, the values of `CC(=O)c1cc2c(o1)C(=O)c1ccccc1C2=O` [Napabucasin] are 0.8204, 0.8869, 0.9658 and 6.402.
The like results for `CO[C@H]1C[C@H](O[C@@H]2/C(C)=C/C[C@@H]3C[C@@H](C[C@]4(CC[C@H](C)[C@@H](C5CCCCC5)O4)O3)OC(=O)[C@@H]3C=C(C)/C(=N/O)[C@H]4OC/C(=C\C=C\[C@@H]2C)[C@]43O)O[C@@H](C)[C@@H]1O` [SELAMECTIN] were, in that order, 0.533, 0.5401, 0.9768 and 7.251.
As for `O=C(CCCCCCNC(=O)c1cnc(N(c2ccccc2)c2ccccc2)nc1)NO` [Rocihnostat (ACY-1215), Rocihnostat], under setting [1], the cor. loess was determined as 0.6577 and the norm was determined as 0.7378. For the same compound, the raw under setting [2] stood at 0.9705. This compound had a z under setting [3] of 5.132.
